# From patent US10632169B2, “Methods of using GM604 in modulating ALS disease biomarkers leading to prognosis and therapeutic treatment for ALS disease” (Genervon Biopharmaceuticals, LLC, priority 2015, dated 2020)
# Residues, ends and D or L forms follow the SMILES beside them.
# Columns and labels:
# [1] = GALS-001 Phase 2A trial, safety and tolerability; format: in vivo, human
# Method: A total of twelve patients were enrolled in the ALS Phase 2A study. Six subjects enrolled at Site 1 and six subjects enrolled at Site 2. Dosing was by slow bolus intravenous administration, once a day for 3 times a week for 2 weeks. Eight patients were randomized to receive 320 mg GM604 per dose and four patients to receive placebo. Our inclusion/exclusion criteria required the ALS patients in the Phase 2A trial to be “definite” ALS sufferers according to El Escorial criteria (i.e., the disease progression must involve upper and lower motoneuron and the bulbar region) who had experienced disease onset within 24 months prior to the beginning of the trial. The goal is to enroll fast progressing patients. Our dosing regimen was delivered via intravenous bolus dosing three times a week (Monday, Wednesday, Friday) for two consecutive weeks, for a total of 6 doses. There was no dosing after the two weeks' treatment, and the patients were followed and evaluated for the next ten weeks. The clinical data for the ALSFRS-R, FVC, TUG, and the Grip Strength and HHD were measured at Baseline, Week 2, Week 6, and Week 12.
# 1. Safety and tolerability were evaluated based on the results of adverse events, vital signs, electrocardiography (ECG) measurements, physical and neurological examinations, safety laboratory monitoring, and hypersensitivity and injection site reactions.
# [2] = GALS-C compassionate use, clinical observations; format: in vivo, human; conditions: during the GALS-C trial
# Description: GALS Compassionate Use (GALS-C) A ALS patient was first diagnosed with the disease in Q1 2005 and by Q3 2008 was quadriplegic and on a ventilator. The FDA approved a compassionate-use application of the MNTF6mer known as GM604 for this patient (IND #120052) using a protocol that followed the Phase 2A trial. This program was thus dubbed GALS-C. GALS-C Study Design
# 8. Exploratory clinical outcome measures will include the rate of decline of the ALS Functional Rating Scale Revised (ALSFRS-R), Forced Vital Capacity (FVC), stabilization or improvement in any clonus or spasticity symptoms, speech, swallowing, drooling, lingual/oral muscle, improved time off vent (self-breathing) and any movement or increase movement of any muscle groups. To estimate the participant's rate of progression prior to treatment, an ALSFRS-R of 48 will be assumed at date of symptom onset. There will be 2 weeks of active treatment, followed by 10 weeks of assessment without active treatment.
# This compassionate trial follows the similar protocol and same dosing regimen as in the Phase 2A ALS trial. […]
# Since the compassionate patient was very advanced, the usual clinical evaluations such as ALS functional rating scale (ALSFRS), forced vital capacity (FVC), and muscle strength were not used. […] The initial CSF before dosing and the CSF sample after the 6th dose were collected and analyzed. […]
# [3] = shown in U.S. Pat. No. 8,673,852; cited from earlier work
# surviving motor neurons = conditions: in vivo administration; blocked by anti-MNTF1 monoclonal antibody; cited from earlier work
# [4] = system: anterior horn motor neurons isolated from rat lumbar spinal cord explants; conditions: naturally occurring and recombinant MNTF1; U.S. Pat. No. 6,309,877; cited from earlier work
Compound,"Headache, GM604-treated patients ([1]; 2 patients of 8)","Puncture site pain, GM604-treated patients ([1]; 3 patients of 8)","Falls, GM604-treated patients ([1]; 4 patients of 8)","Patients with at least 1 Treatment-emergent adverse event (TEAE) ([1]; GM604 treatment group, placebo 4 out of 4)","Grade 1 hypersensitivity reactions ([1]; Visit 5, placebo 1 patient)","Clinical laboratory tests, hematology, urinalysis, ECGs, vital signs, physical and neurological findings vs placebo ([1]; changes over time)",QT or QTcB result ([1]; no GM604 patient above this value),"Rash, GM604-treated patients ([1]; of 8)","Serious adverse events (SAE) ([1]; patient 0203, shortness of breath, judged unrelated to the investigational product)",Deaths or withdrawals due to adverse events ([1]; whole study),Adverse side effects [2],Blood brain barrier penetration [3],Percentage of surviving motor neurons vs untreated controls (surviving motor neurons),Survival in vitro of anterior horn motor neurons [4]
"C[C@H](NC(=O)[C@H](Cc1ccc(O)cc1)NC(=O)[C@H](CCCNC(=N)N)NC(=O)[C@H](CO)NC(=O)[C@@H](N)Cc1ccccc1)C(=O)N[C@@H](CCCNC(=N)N)C(=O)O [GM604, FSRYAR] (H-FSRYAR-OH)",25%,37.5%,50%,5 out of 8,1 patient,no clinically meaningful differences,≤ 450 ms,2 patients,1,No deaths or withdrawals due to adverse events occurred,no adverse side effects were noted,able to penetrate the blood brain barrier,,
MNTF1: motoneuronotrophic factor isolated from rat muscle tissues; recombinant MNTF1-F6 encodes a 33 amino acid sequence (SEQ ID NO:1) (LGTFWGDTLNCWMLSAFSRYARCLAEGHDGPTQ),,,,,,,,,,,,,markedly higher percentage of surviving motor neurons,selectively enhance the survival
